Earlier results as cited in paper PMC6784055 (Toxins, 2019).

System: rat brain sodium channel
Settings: relative to PbTx1

C[C@@H]1C[C@@H]2O[C@@H]3[C@@H](C)[C@H](O)[C@@H]4O[C@]5(C[C@H](O)CO5)[C@@H](C)[C@H](C)[C@H]4O[C@H]3C[C@H]2O[C@H]2C[C@H]3O[C@H]4C/C=C\C[C@H]5O[C@H]6C=C[C@H]7O[C@H]8[C@H](O)[C@H]9O[C@@H](/C=C/[C@H](O)CO)C=CC[C@@H]9O[C@@H]8C[C@@H]7O[C@@H]6C=C[C@@H]5O[C@@H]4C[C@@H](O)[C@]3(C)O[C@@H]2C1 [ciguatoxin-1B]
binding affinity stronger than that of PbTx1: 50 fold
